Results on twelve compounds are retold here after ChEMBL document CHEMBL1201862, “PubChem BioAssay data set” (2004).

Holding throughout (assay): NCI tumour cell line growth inhibition, 48 h
Test [1] has as its system SF-539.
Test [2] has as its system MOLT-4.
Test [3] relates to SW-620.
Test [4] deals with HL-60.
The test system of test [5] is SNB-75.
Test [6] deals with CCRF-CEM.
Test [7] deals with Malme-3M.
Test [8] has as its system SK-OV-3.
The subject of test [9] is RXF 393.
The test system of test [10] is 786-0.
The subject of test [11] is COLO 205.
Test [12] has as its system OVCAR-4.
Test [13] relates to SR.
Test [14] concerns K562.
Test [15] concerns LOX IMVI.
In test [16] the test system is OVCAR-5.
Test [17] has as its system UACC-62.
Test [18] concerns SF-268.

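48-hour exposure; five concentrations; linearly interpolated endpoints. GI50 marks 50% less growth.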 Calls of active or inactive are those of the source. Rule as the data show it: active = GI50 up to about 1.1 µM and inactive = higher. Some results are limits rather than exact numbers.

Take `COc1ccc(C(=O)O)c(Cc2ccc3ccccc3c2)c1`: the GI50 in [1], in test [2], in [3], in test [4], in test [5] and in test [6] was > 100 µM (inactive) each time. The GI50 in test [7], in test [8], in test [9], in test [10], in test [11] and in test [12] was > 100 µM (inactive) in each case. For the same compound, the GI50 in [13], in test [14], in test [15], in test [16], in test [17] and in test [18] was > 100 µM (inactive) each time.
As for `CC(=O)N/C(=C\c1cccc([N+](=O)[O-])c1)c1nc2ccc3c(c2[nH]1)C(=O)c1ccccc1C3=O`, the GI50 in test [1] was 42 µM (inactive); in [2], 8.04 µM (inactive); in [3], 31.9 µM (inactive); in test [4], 2.76 µM (inactive); in test [5] it was 21.3 µM (inactive); in test [6] it was 0.885 µM (active). The GI50 in test [7] was > 74.8 µM (inactive); in test [8], 13.6 µM (inactive); in test [9], 22.8 µM (inactive); in [10], 27.2 µM (inactive); in [11] it was > 78.2 µM (inactive); in test [12], > 65.9 µM (inactive). In addition, the GI50 was 6.97 µM (inactive) in test [13]; 23.9 µM (inactive) in test [14]; 13.3 µM (inactive) in [15]; > 93.3 µM (inactive) in test [16]; > 49.8 µM (inactive) in test [17]; 13.6 µM (inactive) in [18].
For the compound `COc1ccc2c(c1)CC1c3c(ccc(OC)c3O)CC2N1C` (centres undefined), the GI50 in test [1] was 24.7 µM (inactive); in test [2], 23 µM (inactive); in test [3], 21.5 µM (inactive); in test [4], 16.2 µM (inactive); in test [5], 38.3 µM (inactive); in test [6], 23.3 µM (inactive). In addition, the GI50 is 15.7 µM (inactive) in [7]; 62.7 µM (inactive) in test [8]; 22.6 µM (inactive) in test [9]; 29.1 µM (inactive) in [10]; 18.2 µM (inactive) in test [11]; 29.4 µM (inactive) in [12]. Moreover, the GI50 in test [13] is 15.3 µM (inactive); in test [14], 20.4 µM (inactive); in test [15] it was 23.9 µM (inactive); in [16], 54.5 µM (inactive); in [17], 47.4 µM (inactive); in [18], 54.2 µM (inactive).
Regarding `N#Cc1cccc(/C=N/N/C(N)=N/O)c1`, the GI50 in test [1] was > 100 µM (inactive); in test [3] it was > 100 µM (inactive); in test [4] it was 15.2 µM (inactive); in [5], 14.8 µM (inactive); in test [6], 57.7 µM (inactive); in test [7], 85.1 µM (inactive). Moreover, the GI50 in [8] is 27.5 µM (inactive); in test [9], 57.7 µM (inactive); in test [10] it was > 100 µM (inactive); in test [11] it was > 100 µM (inactive); in [12], 20.9 µM (inactive); in test [13], 48.1 µM (inactive). Also, the GI50 is 41.2 µM (inactive) in test [14]; 21.2 µM (inactive) in test [15]; > 100 µM (inactive) in test [16]; 13 µM (inactive) in test [17]; 26.3 µM (inactive) in test [18].
In the case of `CC1=C(CO)C(=O)OC(C(C)C2CCC3C4CC5OC56C(O)C(N5CC5)=CC(=O)C6(C)C4CCC23C)C1` (centres undefined), the GI50 in test [1] is 3.66 µM (inactive); in [2], 1.95 µM (inactive); in [3], 2.56 µM (inactive); in test [4], 1.61 µM (inactive); in test [5], 4.01 µM (inactive); in test [6], 2.61 µM (inactive). The GI50 in [7] was 12.6 µM (inactive); in test [9] it was 12 µM (inactive); in test [10], 5.05 µM (inactive); in [12], 7.19 µM (inactive); in [13] it was 2.77 µM (inactive); in test [14], 3.59 µM (inactive). In addition, the GI50 was 14 µM (inactive) in test [15], 17.4 µM (inactive) in test [16], 10.5 µM (inactive) in test [17] and 3.81 µM (inactive) in test [18].
Turning to `C[Si](C)(C)C(Sc1ccccc1)(Sc1ccccc1)Sc1ccccc1`, the GI50 was > 100 µM (inactive) in test [1]; 4.28 µM (inactive) in test [2]; 46.7 µM (inactive) in test [3]; 35.2 µM (inactive) in test [4]; 40.5 µM (inactive) in test [5]; 24 µM (inactive) in test [6]. Also, the GI50 in test [8] is > 100 µM (inactive); in [9], 29.4 µM (inactive); in test [10] it was > 100 µM (inactive); in test [11], 62.2 µM (inactive); in test [12], > 100 µM (inactive); in test [13], 35.7 µM (inactive). Further, the GI50 in test [14] was > 100 µM (inactive); in [15] it was 58.5 µM (inactive); in test [17], 26.4 µM (inactive); in test [18] it was 76.6 µM (inactive).
As for `Cc1cccc(NC(=O)c2c(N)[n+]([O-])c3ccccc3[n+]2[O-])c1`, the GI50 in [1] is 5.05 µM (inactive); in test [2] it was 4.89 µM (inactive); in [3], 8.38 µM (inactive); in test [4] it was 8.73 µM (inactive); in test [5], 13 µM (inactive); in test [6] it was 4.68 µM (inactive). Besides, the GI50 in test [7] was 12.7 µM (inactive); in [8], 21.1 µM (inactive); in [9], 4.03 µM (inactive); in [10] it was 5.02 µM (inactive); in test [11], 13.3 µM (inactive); in test [12], 9.98 µM (inactive). For the same compound, the GI50 in test [13] is 10.9 µM (inactive); in [14], 5.68 µM (inactive); in test [16], 26.7 µM (inactive); in test [18] it was 7.28 µM (inactive).
`CC(=O)NC1=C(NCc2ccc(Cl)cc2)C(=O)c2ccccc2C1=O`: the GI50 in [1] is 4.41 µM (inactive); in test [2], 2.38 µM (inactive); in test [3] it was 7 µM (inactive); in test [4] it was 1.39 µM (inactive); in test [5], 7.08 µM (inactive); in test [6], 8.53 µM (inactive). The GI50 in test [7] is 9.4 µM (inactive); in test [8], 18.2 µM (inactive); in [9], 4.24 µM (inactive); in test [10] it was 8.77 µM (inactive); in [11], 5.4 µM (inactive); in test [12], 6.85 µM (inactive). Besides, the GI50 was 8 µM (inactive) in [13]; 2.46 µM (inactive) in test [14]; 8.2 µM (inactive) in [15]; 2.61 µM (inactive) in test [17]; 16.5 µM (inactive) in test [18].
`N=C(N)NS(=O)(=O)c1ccc(NCCc2c3ccccc3nc3ccccc23)cc1`: the GI50 in test [1] is > 100 µM (inactive); in test [2], 22.8 µM (inactive); in [3] it was > 100 µM (inactive); in [4], 19.4 µM (inactive); in [5], > 100 µM (inactive); in [6], 94 µM (inactive). For the same compound, the GI50 in [7] was > 100 µM (inactive); in test [8], > 100 µM (inactive); in test [9], > 100 µM (inactive); in test [10], > 100 µM (inactive); in test [11] it was 76 µM (inactive); in [12], 1.31 µM (inactive). The GI50 in test [13] is 33.9 µM (inactive); in [14], 51.1 µM (inactive); in [15], 70.1 µM (inactive); in test [16] it was > 100 µM (inactive); in test [18], > 100 µM (inactive).
For the compound `CCOC(=O)C1(C)CCC(C(C(=O)O)C(=O)O)CC1=O` (centres undefined), the GI50 in test [1], in test [2], in test [3], in test [4], in test [5] and in [6] was > 100 µM (inactive) in each case. Further, the GI50 in test [7], in test [8], in [9], in test [10], in test [11] and in test [12] was > 100 µM (inactive) throughout. The GI50 in [13], in [15], in test [16], in test [17] and in [18] was > 100 µM (inactive) in each case.
As to `CNC(=S)NC(=S)N(C)C`, the GI50 was > 100 µM (inactive) in [1]; 3.61 µM (inactive) in test [2]; 2.96 µM (inactive) in test [3]; 3.42 µM (inactive) in test [4]; > 100 µM (inactive) in test [5]; > 100 µM (inactive) in test [8]. Also, the GI50 in test [9] was > 100 µM (inactive); in test [10] it was > 100 µM (inactive); in [12] it was > 100 µM (inactive); in test [13] it was 3.44 µM (inactive); in [14], 1.75 µM (inactive); in test [15], 4.95 µM (inactive). For the same compound, the GI50 in test [18] was > 100 µM (inactive).
For the compound `CCC12CCCN(Cc3ccccc3)C1c1c(n(C)c3ccccc13)C(CO)C2` (centres undefined), the GI50 was 37.6 µM (inactive) in [1]; 22.4 µM (inactive) in [2]; 35.6 µM (inactive) in test [3]; 43.4 µM (inactive) in test [4]; 83 µM (inactive) in [6]; 46.6 µM (inactive) in test [7]. The GI50 in test [8] was 74.1 µM (inactive); in test [9] it was 72.1 µM (inactive); in test [10], 44.1 µM (inactive); in test [11], 38 µM (inactive); in test [13], 25.5 µM (inactive); in test [14], 29.4 µM (inactive). Moreover, the GI50 in test [15] was 41.9 µM (inactive); in [16], 10.5 µM (inactive); in [17], 51.3 µM (inactive); in [18], 114 µM (inactive).
